From patent US9776962B2, “Aromatic compounds with GPR40 agonistic activity” (TAKEDA PHARMACEUTICAL COMPANY LIMITED, priority 2013, dated 2017)

Each compound was assayed against T1, human GPR40 (Homo sapiens, UniProt O14842) (assay: Evaluation of human GPR40 agonist activity with increase in intracellular Ca2+ concentration as an index (FLIPR)). Details: test compound 1 μM; CHO(dhfr−) cells stably expressing human GPR40; 100% = 10 μM compound of Example 153, 0% = DMSO.
T1 construct: expressed in transfected cells
T1 sequence (O14842 whole entry): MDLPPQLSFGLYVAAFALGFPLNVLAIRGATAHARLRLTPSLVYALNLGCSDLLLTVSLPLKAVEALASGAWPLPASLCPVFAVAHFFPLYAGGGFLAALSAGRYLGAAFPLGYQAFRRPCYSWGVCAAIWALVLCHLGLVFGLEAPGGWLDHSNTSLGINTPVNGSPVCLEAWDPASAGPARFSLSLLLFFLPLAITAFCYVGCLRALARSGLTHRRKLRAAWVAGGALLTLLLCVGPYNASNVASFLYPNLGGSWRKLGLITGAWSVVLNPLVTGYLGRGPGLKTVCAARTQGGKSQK
Format: cell-based
Description: Plasmid hGPR40/pAKKO-1.11H for mammalian cells expression, wherein cDNA fragment (SEQ ID NO: 1) encoding the full-length human GPR40 was incorporated into an expression vector pAKKO-1.11H (Biochimica et Biophysica Acta vol. 1219 pp. 251-259 (1994)), was transfected into CHO-dhfr(−) cells (ATCC, CRL-9096) by using Lipofectamine 2000 (Invitrogen:11668-019). After transfection, the limiting dilution-culture method was performed to select clone in selection medium (nucleic acid-free α-MEM (Invitrogen:12561-056)) containing 10% dialyzed bovine serum (Invitrogen:26400-044)). The expression level of human GPR40 mRNA was confirmed by TaqMan PCR (Life Technologies), and the intracellular calcium mobilization activity of GPR40 ligand (γ-linolenic acid) was confirmed by FLIPR (Molecular Devices), and a clone of human GPR40 expressing CHO cells was selected.
Evaluation of Human GPR40 Agonist Activity with Increase in Intracellular Ca^2+ Concentration as an Index
CHO(dhfr−) cells that stably expressed human GPR40 were suspended in MEMα (Nikken Bio Medical Laboratory) containing 10% dialyzed bovine serum (JR Scientific), 10 mM HEPES (Life Technologies), 100 U/mL penicillin, 100 μg/mL streptomycin (Life Technologies), and plated on a 384 well black/clear cell culture plate at 10,000 cells/well. After culture overnight in a CO2 incubator at 37° C., the culture supernatant was removed, and loading buffer [Ca^2+ probe attached to Calcium Kit II-iCellux (DOJINDO) was dissolved in assay buffer (20 mM HEPES, 0.1% fatty acid-free BSA (Sigma-Aldrich), 2.5 mM probenecid (DOJINDO)-containing HESS (Life Technologies))] was added at 30 μL/well. After leaving for 1 hr at room temperature under light shielding, assay buffer containing the test compound at a final concentration of 1 μM was added at 10 μL/well in FLIPR Tetra (Molecular Devices), and the fluorescence amount was successively measured. Human GPR40 agonist activity calculated using an increase in the intracellular Ca^2+ concentration as an index, wherein the activity of 10 μM of the compound of Example 153 was 100%, and the activity when DMSO was added instead of the test compound was 0%.
With `COc1cc(N2CCC(COc3cc(C(CC(=O)O)C4CC4)ccn3)CC2)c(C(=O)N(CC(C)(C)C)c2cc(C)nc(C)n2)cn1` (stereo not shown) [Example 286, 3-cyclopropyl-3-(2-((1-(5-((2,2-dimethylpropyl) (2,6-dimethylpyrimidin-4-yl)carbamoyl)-2-methoxypyridin-4-yl)piperidin-4-yl)methoxy)pyridin-4-yl)propanoic acid] the activation at 1 µM was 107%.
With `COc1ccc(C(=O)N(CCC(C)C)c2ccccn2)c(N2CCC(COc3cc(C(CC(=O)O)C4CC4)ccn3)CC2)c1` (stereo not shown) [Example 159, 3-cyclopropyl-3-(2-((1-(5-methoxy-2-((3-methylbutyl)(pyridin-2-yl)carbamoyl)phenyl)piperidin-4-yl)methoxy)pyridin-4-yl)propanoic acid] the activation at 1 µM was 103%.
Compound `COc1ccc(C(=O)N(CC(C)(C)OC)c2ccccc2)c(N2CCC(COc3cc(C(CC(=O)O)C4CC4)ccn3)CC2)c1` (stereo not shown) [Example 188, 3-cyclopropyl-3-(2-((1-(5-methoxy-2-((2-methoxy-2-methylpropyl)(phenyl)carbamoyl)phenyl)piperidin-4-yl)methoxy)pyridin-4-yl)propanoic acid] has an activation at 1 µM of 95%.
Work on `COc1ccc(C(=O)N(CC(C)C)c2cc(C)ccn2)c(N2CCC(COc3cc(C(CC(=O)O)C4CC4)ccn3)CC2)c1` (stereo not shown) [Example 123, 3-cyclopropyl-3-(2-((1-(5-methoxy-2-((2-methylpropyl)(4-methylpyridin-2-yl)carbamoyl)phenyl)piperidin-4-yl)methoxy)pyridin-4-yl)propanoic acid] yielded an activation at 1 µM of 99%.
`COc1ccc(C(=O)N(CC(F)F)c2ccccn2)c(N2CCC(COc3cc(C(CC(=O)O)C4CC4)ccn3)CC2)c1` (stereo not shown) [Example 137, 3-cyclopropyl-3-(2-((1-(2-((2,2-difluoroethyl)(pyridin-2-yl)carbamoyl)-5-methoxyphenyl)piperidin-4-yl)methoxy)pyridin-4-yl)propanoic acid] showed an activation at 1 µM of 96%.
For `COc1ccc(C(=O)N(CC(C)C)c2cc(C#N)ccn2)c(N2CCC(COc3cc(C(CC(=O)O)C4CC4)ccn3)CC2)c1` (stereo not shown) [Example 158, 3-(2-((1-(2-((4-cyanopyridin-2-yl)(2-methylpropyl)carbamoyl)-5-methoxyphenyl)piperidin-4-yl)methoxy)pyridin-4-yl)-3-cyclopropylpropanoic acid], the activation at 1 µM was 96%.
`COc1ccc(C(=O)N(CC(F)(F)F)c2ccccn2)c(N2CCC(COc3cc(C(CC(=O)O)C4CC4)ccn3)CC2)c1` (stereo not shown) [Example 116, 3-cyclopropyl-3-(2-((1-(5-methoxy-2-(pyridin-2-yl(2,2,2-trifluoroethyl)carbamoyl)phenyl)piperidin-4-yl)methoxy)pyridin-4-yl)propanoic acid] gave an activation at 1 µM of 101%.
`COc1ccc(C(=O)N(CC(C)(C)C)c2ccccn2)c(N2CCC(COc3cc(C(CC(=O)O)C4CC4)ccn3)CC2)c1` (stereo not shown) [Example 111, 3-cyclopropyl-3-(2-((1-(2-((2,2-dimethylpropyl)(pyridin-2-yl)carbamoyl)-5-methoxyphenyl)piperidin-4-yl)methoxy)pyridin-4-yl)propanoic acid] was tested, and the activation at 1 µM was 100%.
`COc1ccc(C(=O)N(CC(C)(C)C)c2ccccn2)c(N2CC[C@H](COc3cccc(C(CC(=O)O)C4CC4)c3)[C@@H](C)C2)c1` (stereo partly drawn) [Example 279, (3S)-cyclopropyl-3-(3-(((3R,4S)-1-(2-((2,2-dimethylpropyl) (pyridin-2-yl)carbamoyl)-5-methoxyphenyl)-3-methylpiperidin-4-yl)methoxy)phenyl)-propanoic acid] gave an activation at 1 µM of 92%.
With `COc1ccc(C(=O)N(Cc2ccccn2)CC(C)(C)C)c(N2CCC(COc3cc(C(CC(=O)O)C4CC4)ccn3)CC2)c1` (stereo not shown) [Example 181, 3-cyclopropyl-3-(2-((1-(2-((2,2-dimethylpropyl)(pyridin-2-ylmethyl)carbamoyl)-5-methoxyphenyl)piperidin-4-yl)methoxy)pyridin-4-yl)propanoic acid] the activation at 1 µM was 91%.
Compound `COc1ccc(C(=O)N(CC(C)(C)C)c2cncc(C(F)(F)F)c2)c(N2CCC(COc3cc(C(CC(=O)O)C4CC4)ccn3)CC2)c1` (stereo not shown) [Example 235, 3-cyclopropyl-3-(2-((1-(2-((2,2-dimethylpropyl) (5-(trifluoromethyl)pyridin-3-yl)carbamoyl)-5-methoxyphenyl)piperidin-4-yl)methoxy)pyridin-4-yl)propanoic acid] has an activation at 1 µM of 91%.
`COc1ccc(C(=O)N(C)CC(C)C)c(N2CCC(COc3cccc(C(CC(=O)O)C4CC4)c3)CC2)c1` (stereo not shown) [Example 1, 3-cyclopropyl-3-(3-((1-(5-methoxy-2-(methyl(2-methylpropyl)carbamoyl)phenyl)piperidin-4-yl)methoxy)phenyl)propanoic acid] gave an activation at 1 µM of 97%.
With `COc1ccc(C(=O)N(CC2(F)CC2)c2ccccc2)c(N2CCC(COc3cc(C(CC(=O)O)C4CC4)ccn3)CC2)c1` (stereo not shown) [Example 189, 3-cyclopropyl-3-(2-((1-(2-(((1-fluorocyclopropyl)methyl)(phenyl)carbamoyl)-5-methoxyphenyl)piperidin-4-yl)methoxy)pyridin-4-yl)propanoic acid] the activation at 1 µM was 89%.
`COc1ccc(C(=O)N(CC(C)C)c2cccc(C)n2)c(N2CCC(COc3cc(C(CC(=O)O)C4CC4)ccn3)CC2)c1` (stereo not shown) [Example 122, 3-cyclopropyl-3-(2-((1-(5-methoxy-2-((2-methylpropyl)(6-methylpyridin-2-yl)carbamoyl)phenyl)piperidin-4-yl)methoxy)pyridin-4-yl)propanoic acid] was tested, and the activation at 1 µM was 101%.
`COc1ccc(C(=O)N(CC(C)(C)C)c2cccc(C)n2)c(N2CCC(COc3cccc(C4(CC(=O)O)COC4)c3)CC2)c1` [Example 278, (3-(3-((1-(2-((2,2-dimethylpropyl) (6-methylpyridin-2-yl)carbamoyl)-5-methoxyphenyl)piperidin-4-yl)methoxy)phenyl)oxetan-3-yl)acetic acid] was tested, and the activation at 1 µM was 78%.
Work on `COc1ccc(C(=O)N2CCOCC2Cc2ccccc2)c(N2CCC(COc3cc(C(CC(=O)O)C4CC4)ccn3)CC2)c1` (stereo not shown) [Example 201, 3-(2-((1-(2-((3-benzylmorpholin-4-yl)carbonyl)-5-methoxyphenyl)piperidin-4-yl)methoxy)pyridin-4-yl)-3-cyclopropylpropanoic acid] yielded an activation at 1 µM of 92%.
For `COc1cc(N2CCC(COc3cc(C(CC(=O)O)C4CC4)ccn3)CC2)c(C(=O)N(CC2CC2)c2cc(C)cc(C)n2)cn1` (stereo not shown) [Example 285, 3-cyclopropyl-3-(2-((1-(5-((cyclopropylmethyl) (4,6-dimethylpyridin-2-yl)carbamoyl)-2-methoxypyridin-4-yl)piperidin-4-yl)methoxy)pyridin-4-yl)propanoic acid], the activation at 1 µM was 99%.
With `COc1ccc(C(=O)N(CC(C)(C)C)c2nccc(C)n2)c(N2CCC(COc3cc(C(CC(=O)O)C4CC4)ccn3)CC2)c1` (stereo not shown) [Example 173, 3-cyclopropyl-3-(2-((1-(2-((2,2-dimethylpropyl)(4-methylpyrimidin-2-yl)carbamoyl)-5-methoxyphenyl)piperidin-4-yl)methoxy)pyridin-4-yl)propanoic acid] the activation at 1 µM was 103%.
`COc1ccc(C(=O)N(c2ccccn2)C2CCN(CC(F)(F)F)CC2)c(N2CCC(COc3cc(C(CC(=O)O)C4CC4)ccn3)CC2)c1` (stereo not shown) [Example 191, 3-cyclopropyl-3-(2-((1-(5-methoxy-2-(pyridin-2-yl(1-(2,2,2-trifluoroethyl)piperidin-4-yl)carbamoyl)phenyl)piperidin-4-yl)methoxy)pyridin-4-yl)propanoic acid] was tested, and the “Activity (human GPR40 agonist activity)” value was 86%.
